Assay results: patent EP0440787B1, “COMPOUNDS OF 1,4-BIS(AMINO)BENZO(G)PHTHALAZENE” (CONSEJO SUPERIOR DE INVESTIGACIONES CIENTIFICAS, priority 1989, dated 1990)
≈ marks a conversion by molar mass, not a printed value. Read-outs that look alike come from different tables or passages of the source. Marks after values point to notes of the source that are not given here. Starred links: 1 amine or outer side, 2 acyl side, 3 side chain; linkers in the order of their positions; H or OH if unused. Positions of bridges follow the written chain, without caps; N, C: chain ends. Non-standard residues stand in square brackets, D forms with d. Residues, ends and D or L forms follow the SMILES beside them. Chains are numbered I, II in the order given. Actinocin(9to1) = Cc1c2oc3c(C)ccc(C(=O)[*:1])c3nc-2c(C(=O)[*:2])c(N)c1=O; NMeV = CN[C@H](C(=O)O)C(C)C; Sar = CNCC(=O)O

How the values were obtained:
[1] = test system: LMMB cell line (from normal human tonsilar fibroblasts); assay: Cytostatic and cytocidal activity in vitro, LMMB normal cell cultures; format: cell-based; details: Fibroblast
Description: (§1) The cytostatic and cytocidal activity of BBPh has been evaluated employing HeLa cell lines (from a human uterine cervix carcinoma), ADLD-clon (from a human malignant melanona) and a semicontinuos LMMB cell line (from normal human tonsilar fibroblasts).
(§2) In order to perform both "in vitro" and "in vivo" experiments a concentrated stock solution of BBPh in dimethyl sulfoxide (DMSO) was prepared. From it increasing diluted solutions in McCoy's R5aI grown medium supplemented with 5% human serum, 5% calf serum, 5% fetal bovine serum, 100 IU/mL penicillin, 100 ug/mL streptomycin and 16 ug/mL gentamycin were obtained.
(§3) Serial dilutions of BBPh and the solvent were assayed in cultures seeded 24 hours before on 96-well "Microtiter" plates. The seeding was carried out by depositing 200 µL of cell suspension in growth medium in each well, adjusted to 3 x 10^5/mL HeLa cells, 9 x 10^5/mL ADLD-clon cells or 4 x 10^5/mL LMMB cells.
(§4) The plates with different concentrations of BBPh and control solutions were incubated at 37°C in a humidily saturated air containing 5% CO2.
(§5) Then the plates were fixed and stained to stimate the effects of BBPh under the conditions described by Alvarez (1986) (11) taken Adriamycin as antitumoral compound of reference. […]

[2] = test system: ADLD-clon (from a human malignant melanona); assay: Cytostatic and cytocidal activity in vitro, ADLD-clon cell cultures; format: cell-based
Description: as §1, §2, §3, §4, §5

[3] = test system: HeLa cell lines (from a human uterine cervix carcinoma); assay: Cytostatic and cytocidal activity in vitro, HeLa cell cultures; format: cell-based
Description: as §1, §2, §3, §4, §5

pKa of BBPh = format: physicochemical
From the text: Some anticancer drugs such as mitomycin C and antinomycin D which interact with nucleic acids have shown activity against Trypanosoma cruzi (16). […] Following a similar behaviour the 1,4-bis(buthylamino)benzo[g] phthalazine (BBPh) which is able to form 1,4-bis(buthylamino) benzo[g]phthalazinium cations at physiological PH (PKa of BBPh = 8.6) and is a potential intercalating agent has shown both, antineoplasic and trypanosomicide activities.

[4] = test system: Trichomonas vaginalis (Srain G); assay: microbe, parasite or virus in culture; details: for MCC: read-out: Trichomonacidal activity MCC; for MIC: read-out: Trichomonacidal activity MIC
Description: The cultures of the strains of Trichomonas vaginalis (Srain G) used as experimental model were grown in Diamond Medium (TYM) without agar (100.000 organisms/mL). […] Minimal inhibition concentration (MIC) and Minimal cytocidal concentration (MCC) were established in accordance with the definitions proposed by Escario et al. (19).

[5] = test system: Ehrlich ascites cancer cells; assay: In vivo antitumoral activity, subcutaneous transplant of Ehrlich ascites cancer cells in mice; set-up: species or system swiss mice
Description: Five groups of six 2-month male swiss mice weighing 25 grams were disposed. Each animal received a transplant of 10^5 Ehrlich ascites cancer cells by the subcutaneous route in the interscapular region. Fourteen days later, when the tumors were evident and measured more than 3 millimeter in diameter, the animals were submitted to the different treatments.
Group 1 received a first intraperitoneal dose of 300 µL of DMSO followed by equal subcutaneous doses, the next three consecutive days.
Group 2 received a single intraperitoneal dose of 100 µg of BBPh solubilized in 300 µL of DMSO, followed by equal subcutaneous doses the next three consecutive days.
Group 3 received a single intraperitoneal dose of 500 µg of BBPh in 300 µL of DMSO.
Group 4 received a single intraperitoneal dose of 1.000 µg of BBPh in 300 µL of DMSO.
Group 5 received a single subcutaneous dose of 4.000 µg BBPh in an oily solution.

T. cruzi = assay: Trypanosomicide activity in vitro in infected NMRI mice blood; format: cell-based, Trypanosoma cruzi; details: 24 h at 4°C; for N° Tryp/mL: controls Cd 298, Ct 247
[6] = 50 per 100 lethal dose (LD50) of BBPh and toxicity in mice; format: in vivo; details: DMSO as solvent
[7] = clinical drugs, from reference (12); cited from earlier work
[8] = group 5: BBPh in oily solution 1 x 4.0 mg s.c. (160 mg/kg)
[9] = overall dose 40 mg/Kg: single i.p. dose of 1.0 mg in DMSO

With `COc1cccc2c1C(=O)c1c(O)c3c(c(O)c1C2=O)C[C@@](O)(C(=O)CO)C[C@@H]3O[C@H]1C[C@H](N)[C@H](O)[C@H](C)O1` [Adriamycin, reference compound] the IC50 ([1]; read-out: ID50) was 0.07 µg/mL (≈ 0.129 µM), the IC50 ([2]; read-out: ID50) was 0.33 µg/mL (≈ 0.607 µM) and the IC50 ([3]; read-out: ID50) was 0.33 µg/mL (≈ 0.607 µM).
In the case of `CCCCNc1nnc(NCCCC)c2cc3ccccc3cc12` [BBPh, 1,4-bis(n-butylamino)benzo[g]phthalazine], the pKa (pKa of BBPh) is reported as 8.6, the MCC [4] is reported as 10 to 25 µg/mL and the MIC [4] is reported as 5 to 10 µg/mL (≈ 15.5 to 31 µM). The IC50 ([1]; LMMB normal cells, concentration producing death or growth inhibition of 50% of the cells, read-out: ID50 (the source's name)) was 1.08 µg/mL (≈ 3.35 µM), the IC50 ([2]; ADLD-clon, concentration producing death or growth inhibition of 50% of the cells, read-out: ID50 (the source's name)) was 0.67 µg/mL (≈ 2.08 µM) and the IC50 ([3]; concentration producing death or growth inhibition of 50% of the cells, read-out: ID50 (the source's name)) was 0.67 µg/mL (≈ 2.08 µM). For the same molecule, the T/S ([5]; group 2: BBPh in DMSO 1 x 0.1 mg i.p. + 3 x 0.1 mg s.c.) was 6/5, the “SURVIVAL(DAYS) MST” value ([5]; group 2: BBPh in DMSO 1 x 0.1 mg i.p. + 3 x 0.1 mg s.c., DMSO control 59) was 84 days and the “SURVIVAL(DAYS) MST” value [5, 8] was 86 days. For the same molecule, the T/S [5, 8] was 5/5, the Toxic death ([5]; overall dose 16 mg/Kg: 0.1 mg i.p. then similar s.c. doses next three days, DMSO) was 1/6 and the “T/C (%)” value ([5]; overall dose 16 mg/Kg: 0.1 mg i.p. then similar s.c. doses next three days, DMSO, active when > 125%) was 142^f %. The “TST” value ([5]; overall dose 16 mg/Kg: 0.1 mg i.p. then similar s.c. doses next three days, DMSO, control 59) was 84 days, the Toxic death ([5]; overall dose 20 mg/Kg: single i.p. dose of 0.5 mg in DMSO) was 4/6 and the “T/C (%)” value ([5]; overall dose 20 mg/Kg: single i.p. dose of 0.5 mg in DMSO, active when > 125%) was 161^f %. The “TST” value ([5]; overall dose 20 mg/Kg: single i.p. dose of 0.5 mg in DMSO, control 59) was 96 days, the “T/C (%)” value [5, 9] was “Toxic” and the “TST” value [5, 9] was 1 days. The Toxic death [5, 9] was 6/6, the “N° Tryp/mL” value (T. cruzi; BBPh 75 µg/mL) was 0 Tryp/mL and the “N° Tryp/mL” value (T. cruzi; BBPh 125 µg/mL) was 0 Tryp/mL. For the same molecule, the “N° Tryp/mL” value (T. cruzi; BBPh 250 µg/mL) was 0 Tryp/mL, the “N° Tryp/mL” value (T. cruzi; BBPh 500 µg/mL) was 0 Tryp/mL and the “N° Tryp/mL” value (T. cruzi; BBPh 1000 µg/mL) was 0 Tryp/mL. The parasitemia (T. cruzi; all samples, 1000 to 75 ug/mL) was “negative parasitemia”, the toxicity ([6]; i.p., single dose of 20 mg/Kg) was “toxic” and the LD50 ([6]; mouse, in vivo, ip, BBPh) was 12 mg/kg.
For `Cc1c2oc3c(C)ccc(C(=O)N[C@@H]4C(=O)N[C@H](C(C)C)C(=O)N5CCC[C@H]5C(=O)N(C)CC(=O)N(C)[C@@H](C(C)C)C(=O)O[C@@H]4C)c3nc-2c(C(=O)N[C@@H]2C(=O)N[C@H](C(C)C)C(=O)N3CCC[C@H]3C(=O)N(C)CC(=O)N(C)[C@@H](C(C)C)C(=O)O[C@@H]2C)c(N)c1=O` [Actinomicin D] (I: T[dV]P[Sar][NMeV] / II: T[dV]P[Sar][NMeV]; ester I:1-I:C, II:1-II:C; linker I:N-II:N via Actinocin(9to1)), the LD50 [7] is listed as 0.095 mg/kg.
In the case of `CC[C@]1(O)C[C@H]2CN(CCc3c([nH]c4ccccc34)[C@@](C(=O)OC)(c3cc4c(cc3OC)N(C=O)[C@H]3[C@@](O)(C(=O)OC)[C@H](OC(C)=O)[C@]5(CC)C=CCN6CC[C@]43[C@@H]65)C2)C1` [Vincristine], the LD50 [7] is listed as 4.5 mg/kg.
With `Cc1ncc([N+](=O)[O-])n1CCO` [Metronidazole, reference compound] the MCC [4] was 8 µg/mL and the MIC [4] was 4 to 8 µg/mL (≈ 23.4 to 46.7 µM).
In the case of `COc1cccc2c1C(=O)c1c(O)c3c(c(O)c1C2=O)C[C@@](O)(C(C)=O)C[C@@H]3O[C@H]1C[C@H](N)[C@H](O)[C@H](C)O1` [Daunomycin], the LD50 [7] is listed as 9.2 mg/kg.
